According to US10195248B2, “Use of haptoglobin subunit for promoting wound healing” (Taipei Medical University, priority 2016, dated 2019):

Test system: low-density lipoproteins (LDL)
Test: Anti-oxidant test (TBARS production, Cu-induced LDL oxidation)
Format: biochemical
Conditions: 5 μM CuSO4, 20 μg LDL, 37° C., 2 hours; TBARS absorbance 540 nm; FIG. 1
Experimental: In this experiment, production level of thiobarbituric acid-reactive substances (TBARS) was measured to determine oxidization level of low-density lipoproteins (LDL). Specifically, […], of each test article was mixed with 5 μM copper (II) sulfate (CuSO4) and 20 μg of LDL, and then incubated at 37° C. for 2 hours. 250 μL of 20% tricholoroacetic acid was added to the precipitated protein. After that, 250 μL of 0.67% 2-thiobarbituric acid was added to the obtained mixture and incubated at 80° C. for 30 minutes. The final resultant was separated to give a supernatant by centrifugation at 3,000 g for 5 minutes. 300 μL of the supernatant was taken to a 96-well plate to measure its absorbance under 540 nm.

Molecule	inhibitory concentration (IC50) for anti-oxidant activity (rank order)
Hp β subunit: haptoglobin β subunit	follow it sequentially
CC(C)(Sc1cc(C(C)(C)C)c(O)c(C(C)(C)C)c1)Sc1cc(C(C)(C)C)c(O)c(C(C)(C)C)c1 [probucol, Probucol]	follow it sequentially
